These results are taken from US11435363B2, “Relevance of achieved levels of markers of systemic inflammation following treatment” (The Brigham and Women's Hospital, Inc., priority 2004, dated 2022).

The test system of experiment [1] is acute coronary syndrome patients. As to the kind of experiment: PROVE IT-TIMI 22: recurrent myocardial infarction or coronary death after day 30. The conditions noted are these: for recurrent event rate, achieved LDLC <70 mg/dL and achieved CRP greater than 2.0 mg/L / recurrent event rate, achieved LDLC <70 mg/dL and achieved CRP less than 2.0 mg/L: recurrent myocardial infarction or coronary death, P for difference between agents=0.7. It is filed as in vivo, human.
Text: (§1) In total, 4,162 patients who had been hospitalized within the preceding 10 days for acute coronary syndrome and provided written informed consent were enrolled at 349 sites in eight countries. Approximately two-thirds had acute myocardial infarction and the remainder had high-risk unstable angina.
(§2) For this analysis, we defined achieved LDLC and achieved CRP levels as those values obtained at the 30 day follow-up, a period of time adequate for the effect of statin therapy to be seen for both LDLC and CRP and a time when any residual effects of ischemia on each parameter would no longer be evident. Of the total cohort, 3,745 participants (90.0 percent) were alive and free of a recurrent event at day 30 and underwent evaluation for both LDLC and CRP at that time. All laboratory measurements were made in core facilities and a validated assay for high sensitivity CRP used (Denka Seiken).
(§3) Spearman correlation coefficients were used to evaluate the relationship between achieved LDLC and achieved CRP. We then used a multi-stage process to address the impact of achieved LDLC and achieved CRP levels on rates of recurrent myocardial infarction or fatal coronary events that occurred after day 30 in the study. First, we divided the study population into increasing quartiles of achieved LDLC and achieved CRP and sought evidence that these levels were associated with increased risk of recurrent myocardial infarction or coronary death, both in age-adjusted analyses and after further adjustment for gender, smoking status (current/non-smoker), diabetes, body mass index (kg/m^2), and history of hypertension. […] To address the relative impact of achieved CRP across LDLC strata, we repeated this process after dividing the study cohort into four groups on the basis of achieved LDLC levels and achieved CRP levels above or below the respective values of 70 mg/dL and 2.0 mg/L. A test for trend across groups was performed assigning a score of 0 to those with low levels of both, a score of 1 to the two intermediate groups, and a score of 2 to those with high levels of both. Similar analyses were performed after stratification of the study group according to atorvastatin or pravastatin allocation. Estimates of hazard ratios were obtained using Cox proportional-hazards models.

The test system of experiment [2] is CRP. The conditions noted are these: for median CRP level at day 30 / median CRP level at end of study: atorvastatin 80 mg/day or pravastatin 40 mg/day orally; for median CRP level at day 30 / median CRP level at end of study / proportion of treated patients who achieved CRP levels below 2.0 at day 30: P<0.001; for median CRP level at end of study: end of study (mean 24 months); for proportion of treated patients who achieved CRP levels below 2.0 at day 30: atorvastatin 80 mg or pravastatin 40 mg.
Text: as §1, §2, §3

Experiment [3] relates to LDLC. As to the kind of experiment: PROVE IT-TIMI 22: LDLC levels on statin therapy. It counts as in vivo, human. The conditions noted are these: for proportion of allocated patients who achieved an LDLC goal of <70 mg/dL: day 30, atorvastatin 80 mg or pravastatin 40 mg, P<0.001.
Text: as §1, §2
Spearman correlation coefficients were used to evaluate the relationship between achieved LDLC and achieved CRP. We then used a multi-stage process to address the impact of achieved LDLC and achieved CRP levels on rates of recurrent myocardial infarction or fatal coronary events that occurred after day 30 in the study. First, we divided the study population into increasing quartiles of achieved LDLC and achieved CRP and sought evidence that these levels were associated with increased risk of recurrent myocardial infarction or coronary death, both in age-adjusted analyses and after further adjustment for gender, smoking status (current/non-smoker), diabetes, body mass index (kg/m^2), and history of hypertension. […] To address the relative impact of achieved CRP across LDLC strata, we repeated this process after dividing the study cohort into four groups on the basis of achieved LDLC levels and achieved CRP levels above or below the respective values of 70 mg/dL and 2.0 mg/L. A test for trend across groups was performed assigning a score of 0 to those with low levels of both, a score of 1 to the two intermediate groups, and a score of 2 to those with high levels of both. […]
Experiment [4] concerns acute coronary syndrome patients. The conditions noted are these: overall trial result, reference (7); cited from earlier work.

`CC[C@H](C)C(=O)O[C@H]1C[C@H](O)C=C2C=C[C@H](C)[C@H](CC[C@@H](O)C[C@@H](O)CC(=O)O)[C@H]21` [pravastatin]: in experiment [1], the “recurrent event rate, achieved LDLC <70 mg/dL and achieved CRP greater than 2.0 mg/L” value worked out at 3.4 per 100 person-years; the “recurrent event rate, achieved LDLC <70 mg/dL and achieved CRP less than 2.0 mg/L” value was determined as 2.5 per 100 person-years. Moreover, in experiment [2], the “median CRP level at day 30” value is listed as 2.3 mg/L, the “median CRP level at end of study” value came out at 2.1 mg/1 and the “proportion of treated patients who achieved CRP levels below 2.0 at day 30” value is reported as 44.9%. In experiment [3], the “proportion of allocated patients who achieved an LDLC goal of <70 mg/dL” value was 21.7%.

Consider `COc1c(N2CCNC(C)C2)c(F)cc2c(=O)c(C(=O)O)cn(C3CC3)c12` (stereo not shown) [gatifloxicin], for which, in experiment [2] (gatifloxicin versus placebo allocation in this population), the “effect on CRP levels” value was “no significant effect on CRP levels”.

As to `CC(C)c1c(C(=O)Nc2ccccc2)c(-c2ccccc2)c(-c2ccc(F)cc2)n1CC[C@@H](O)C[C@@H](O)CC(=O)O` [atorvastatin], the “fully adjusted hazard ratio for atorvastatin vs pravastatin, clinical outcomes” value in experiment [1] (after accounting for achieved LDLC and achieved CRP, 95% CI 0.75 to 1.34, P=0.9) is recorded as 1.00. For the same compound, in experiment [1], the “recurrent event rate, achieved LDLC <70 mg/dL and achieved CRP greater than 2.0 mg/L” value was 3.1 per 100 person-years; the “recurrent event rate, achieved LDLC <70 mg/dL and achieved CRP less than 2.0 mg/L” value is reported as 2.3 per 100 person-years. In experiment [2], the “median CRP level at day 30” value was found to be 1.6 mg/L, the “median CRP level at end of study” value is listed as 1.3 mg/1 and the “proportion of treated patients who achieved CRP levels below 2.0 at day 30” value turned out to be 57.5%. The “overall clinical outcome in the PROVE IT-TIMI 22 trial” value in experiment [4] is “superior to pravastatin overall”. Besides, the “LDLC levels compared with the pravastatin group” value in experiment [3] (day 30, 4 months and end of study, identical at randomization) is “significantly lower”. Also, the “proportion of allocated patients who achieved an LDLC goal of <70 mg/dL” value in experiment [3] amounted to 72.3%.
